Data taken from patent US20110190324A1, “METHODS OF TREATING ATHEROSCLEROSIS” (priority 2008, published 2011).
“Also recorded” adds a separate entry of the source.

Assays:
Type in all cases: cell-based, human
[1] = tested on: HIF-1α protein; assay: HIF-1α protein accumulation, western blot; details: foam cells; for Antagonism of adenosine induced HIF-1α protein accumulation: hypoxia, adenosine 100 μM, antagonist 100 nM
Procedure: Hypoxic exposures were done in a modular incubator chamber and flushed with a gas mixture containing 1% O2, 5% CO2 and balance N2 (MiniGalaxy, RSBiotech, Irvine, Scotland).
U937 cells were induced to differentiate into macrophages by treatment with phorbol myristate acetate (PMA, 40 nM) for 72 h. […] All dialyses were carried out with Pierce Slide-A-Lyzer cassettes (10,000 molecular wheight cut-off).
Whole cell lysates were prepared as described previously (27). […] In experiments aimed to detect HIF, western blot analyses were performed using antibody against HIF-1a (1:250 dilution) and HIF-1β (1:1000 dilution) in 5% non-fat dry milk in PBS/0.1% Tween-20 overnight at 4° C. The protein concentration was determined using BCA protein assay kit (Pierce, Rockford, Ill.). Tubulin (1:250) was used to ensure equal protein loading. Immunoreactivity was assessed and quantified by using a VersaDoc Imaging System (Bio-Rad).

[2] = tested on: VEGF; assay: VEGF secretion by U937 derived foam cells, ELISA; details: 24 h, hypoxia, adenosine 100 μM, antagonist 100 nM
Procedure: (§1) U937 cells were induced to differentiate into macrophages by treatment with phorbol myristate acetate (PMA, 40 nM) for 72 h. Before use oxLDL was dialyzed against 1 L of 0.15 M sodium chloride and 0.3 mM EDTA (pH 7.4) for 12 h at 4° C., then against RPMI 1640 medium (two changes, 1 L/each change) for 24 h. All dialyses were carried out with Pierce Slide-A-Lyzer cassettes (10,000 molecular wheight cut-off). After dialysis, lipoproteins were sterilized by passing them through a 0.45 μm (pore-size) filter, then added (50-100 μg/mL, Intracel, Frederick, Md.) to PMA-treated U937 cells and incubated in serum-free RPMI 1640 for 48 h.
(§2) The levels of VEGF and IL-8 protein secreted by the cells in the medium were determined by VEGF and IL-8 ELISA kits (R&D Systems) according to the manufacturer's instructions. The data were presented as mean±SD from three independent experiments.

[3] = tested on: IL-8; assay: IL-8 secretion by U937 derived foam cells, ELISA
Procedure: as §1, §2

[4] = tested on: foam cell formation from PMA-treated U937 cells; assay: Oil red O staining, foam cell formation; details: oxLDL 50 μg/mL; for Effect on oxLDL and adenosine induced foam cells formation: adenosine 100 μM
Procedure: as §1
Treatment of PMA-differentiated U937 cells with test agents was performed 2 h before addition of oxLDL. After exposition to oxLDL under hypoxia for 24 h, U937 cells were fixed in phosphate buffered saline-buffered 4% paraformaldehyde solution for 15 min and then air dried. Oil red O (in 60% isopropanol) staining was done for 15 min essentially as described previously by Kalayoglu and Byrne (Infect. Immun., 66: 5067-5072, 1998). Cells were viewed under a bright-field microscope in 100× fields using a Nikon's Eclipse E800 microscope. Foam cells were defined as macrophages in which cytoplasm was filled with Oil red O-stainable lipid droplets.

Structure (SMILES)	Antagonism of adenosine induced HIF-1α protein accumulation [1]	Reduction of adenosine induced VEGF increase [2]	Effect on oxLDL and adenosine induced foam cells formation ([4]; antagonist 100 nM)	other results
CCNC(=O)[C@H]1O[C@@H](n2cnc3c(Nc4ccc(OCC(=O)Nc5ccccc5)cc4)ncnc32)[C@H](O)[C@@H]1O [1-deoxy-1-[6-{4-[(phenylcarbamoyl)-methoxy]phenylamino}-9H-purin-9-yl]-N-ethyl-β-D-ribofuranuronamide]				Induction of HIF-1α protein by adenosine receptor agonists ([1]; CHA 10, 100 nM, CGS 21680 500, 1000 nM, A2B agonist 10, 100 nM, CI-IB-MECA 10, 100 nM): able to induce HIF-1α protein
CCCn1c(=O)c2[nH]c(-c3cc(OCC(=O)Nc4ccc5c(c4)OCO5)nn3C)nc2n(CCC)c1=O [MRE-2029F20, N-benzo[1,3]dioxol-5-yl-2-[5-(1,3-dipropyl-2,6-dioxo-2,3,6,7-tetrahydro-1H-purin-8-yl)-1-methyl-1H-pyrazol-3-yl-oxy]-acetamide]	partially antagonized	strongly reduced	blocked the foam cells formation; also recorded: inhibition of foam cell formation	Block of the effect of the adenosine A2B receptor agonist (1 μM) on IL-8 secretion [3]: completely blocked; Block of adenosine induced IL-8 increase ([3]; hypoxia, adenosine 100 μM, antagonist 100 nM): blocked
CCCn1cc2c(nc(NC(=O)Nc3ccc(OC)cc3)n3nc(-c4ccco4)nc23)n1 [MRE-3008F20, 5-[[(4-methoxyphenyl)amino]carbonyl]amino-8-propyl-2-(2-furyl)-pyrazolo[4,3-e]-1,2,4-triazolo[1,5-c]pyrimidine]	partially antagonized	strongly reduced	inhibition of foam cell formation; also recorded: blocked the foam cells formation	
Nc1nc2c(cnn2CCc2ccccc2)c2nc(-c3ccco3)nn12 [SCH 58261]	partially antagonized	inhibited to lesser extent		
COc1ccccc1NC(=O)Nc1nc(-c2cccnc2)nc2ccccc12 [VUF 5574]				Effect on oxLDL and adenosine induced foam cells formation ([4]; antagonist 10 nM): blocked the foam cells formation; also recorded: inhibition of foam cell formation
Nc1ncnc2c1ncn2[C@@H]1O[C@H](CO)[C@@H](O)[C@H]1O [adenosine]				Foam cells (Oil red O) on top of oxLDL ([4]; 24 h, 100 μM): increased
